SMILES strings stand for the structures. Where two headings read alike, the source gives them in different places.

Class data for 35 compounds are collected here from patent US20050197350A1, “Novel quinoline, tetrahydroquinazoline, and pyrimidine derivatives and methods of treatment related to the use thereof” (TAISHO PHARMACEUTICAL CO., LTD., priority 2003, published 2005).

The test system of the assay is MCH receptors. Briefly: MCH receptor activity class (method not given).
Where [1] appears, read: activity class 1-3: percent of control at 10^-7 M or IC50.
Setting [2] is: MCH receptor activity class 1-3 (percent of control at 10^-7 M or IC50).
Where [3] appears, read: class by percent of control at 10^-7 M or IC50.
[4] abbreviates: class 1-3 by percent of control at 10^-7 M or IC50.
The mark [5] stands for this setting: class by percent of control at 10^−7 M or IC50.
[6] abbreviates: MCH receptor, class by percent of control at 10^-7 M or IC50.

On to `Cc1cccc(C)c1NC(=O)N[C@H]1CC[C@@H](Nc2nc3c(c(N(C)C)n2)CCCC3)CC1` [compound 1660], for which the class under setting [1] is on record as 3 (Class 3 The value of percent of control at 10^−7 M was more than 60% or the value of IC50 was more than 200 nM.).
For `COc1cc(OC)c(NC(=S)N[C@H]2CC[C@@H](Nc3cc(N(C)C)c4ccccc4n3)CC2)cc1Cl` [compound 2297, N-(5-chloro-2,4-dimethoxyphenyl)-N′-(cis-4-{[4-(dimethylamino)quinolin-2-yl]amino}cyclohexyl)thiourea], under setting [2], the class is on record as 1 (Class 1: The value of percent of control at 10^−7 M was less than 40% or the value of IC50 was less than 50 nM.).
For the compound `COc1cc(C(=O)NC[C@H]2CC[C@@H](Nc3nccc(N(C)C)n3)CC2)ccc1[N+](=O)[O-]` [compound 941, N-[(cis-4-{[4-(dimethylamino)pyrimidin-2-yl]amino}cyclohexyl)methyl]-3-methoxy-4-nitrobenzamide], the class under setting [3] was 1 (Class 1: The value of percent of control at 10^−7 M was less than 40% or the value of IC50 was less than 50 nM.).
On the same count and under the same terms, then `CN(C)c1ccnc(N[C@H]2CC[C@@H](NC(=O)c3ccc(I)o3)CC2)n1` [compound 819, N-(cis-4-{[4-(dimethylamino)pyrimidin-2-yl]amino}cyclohexyl)-5-iodo-2-furamide], with 2 (Class 2: The value of percent of control at 10^−7 M was from 40% to 60% or the value of IC′50 was from 50 nM to 200 nM.).
With `CCOc1ccccc1C(=O)NC[C@H]1CC[C@@H](Nc2nccc(N(C)C)n2)CC1` [compound 417], the class under setting [4] is 3 (Class 3 The value of percent of control at 10^−7 M was more than 60% or the value of IC50 was more than 200 nM.).
As for `COc1cccc(CNC(=O)[C@H]2CC[C@@H](Nc3nc(C)cc(N(C)C)n3)CC2)c1` [compound 2815, cis-4-{[4-(dimethylamino)-6-methylpyrimidin-2-yl]amino}-N-(3-methoxybenzyl)cyclohexanecarboxamide], the class under setting [5] was 1 (Class 1: The value of percent of control at 10^−7 M was less than 40% or the value of IC50 was less than 50 nM.).
For `CN(C)c1ccnc(N[C@H]2CC[C@@H](CNC(=O)c3cn(Cc4ccccc4)c4ccccc34)CC2)n1` [compound 942], under setting [3], the class is 3 (Class 3 The value of percent of control at 10^−7 M was more than 60% or the value of IC50 was more than 200 nM.).
Take `CN(C)c1nc(N[C@H]2CC[C@@H](NC(=O)Nc3ccccc3C#N)CC2)nc2c1CCCC2` [compound 1915]: under setting [6], the class is recorded as 3 (Class 3 The value of percent of control at 10^−7 M was more than 60% or the value of IC50 was more than 200 nM.).
`CN(C)c1nc(N[C@H]2CC[C@@H](NC(=O)Nc3ccc(Cl)c(C(F)(F)F)c3)CC2)nc2c1CCCC2` [compound 1887, N-4[4-chloro-3-(trifluoromethyl)phenyl]-N′-(cis-4-{[4-(dimethylamino)-5,6,7,8-tetrahydroquinazolin-2-yl]amino}cyclohexyl)urea]: the class under setting [3] was 3 (Class 3 The value of percent of control at 10^−7 M was more than 60% or the value of IC50 was more than 200 nM.).
The same measure, in the same setting: then `CN(C)c1ccnc(N[C@H]2CC[C@@H](NC(=O)c3ccc(Cl)s3)CC2)n1` [compound 816], with 3 (Class 3 The value of percent of control at 10^−7 M was more than 60% or the value of IC50 was more than 200 nM.).
For the compound `Cc1cc(N(C)C)nc(N[C@H]2CC[C@@H](CNC(=O)c3ccc(F)c(Cl)c3)CC2)n1` [compound 2764], the class under setting [5] was 1 (Class 1: The value of percent of control at 10^−7 M was less than 40% or the value of IC50 was less than 50 nM.).
For `CN(C)c1nc(N[C@H]2CC[C@@H](NC(=O)Nc3cccc4ccccc34)CC2)nc2c1CCCC2` [compound 1700], the class under setting [1] is on record as 2 (Class 2: The value of percent of control at 10^−7 M was from 40% to 60% or the value of IC′50 was from 50 nM to 200 nM.).
`Cc1cc(N(C)C)nc(N[C@H]2CC[C@@H](CNC(=O)c3ccc(F)c(C)c3)CC2)n1` [compound 2756]: the class under setting [5] was 3 (Class 3 The value of percent of control at 10^−7 M was more than 60% or the value of IC50 was more than 200 nM.).
Turning to `CN(C)c1cc(N[C@H]2CC[C@@H](NC(=O)c3ccc(F)cc3)CC2)nc2ccccc12` [compound 37, N-(cis-4-{[4-(dimethylamino)quinolin-2-yl]amino}cyclohexyl)-4-fluorobenzamide], the class under setting [6] is 1 (Class 1: The value of percent of control at 10^−7 M was less than 40% or the value of IC50 was less than 50 nM.).
As to `Cc1cc(N(C)C)nc(N[C@H]2CC[C@@H](C(=O)NCc3cccc(I)c3)CC2)n1` [Example 2571, cis-4-{[4-(dimethylamino)-6-methylpyrimidin-2-yl]amino}-N-(3-iodobenzyl)cyclohexanecarboxamide], the class is 1.
As to `CN(C)c1ccnc(N[C@H]2CC[C@@H](CNC(=O)CC3=CCCCC3)CC2)n1` [compound 943], under setting [3], the class was 3 (Class 3 The value of percent of control at 10^−7 M was more than 60% or the value of IC50 was more than 200 nM.).
Still for that read-out and setting: the same measure for `COc1ccc(CNC[C@H]2CC[C@@H](Nc3nc4c(c(N(C)C)n3)CCCC4)CC2)c(OC)c1C` [compound 1409]: 3 (Class 3 The value of percent of control at 10^−7 M was more than 60% or the value of IC50 was more than 200 nM.); for `CN(C)c1ccnc(N[C@H]2CC[C@@H](NC(=O)c3ccc([N+](=O)[O-])cc3Cl)CC2)n1` [compound 320]: 3 (Class 3 The value of percent of control at 10^−7 M was more than 60% or the value of IC50 was more than 200 nM.).
Consider `CN(C)c1cc(N[C@H]2CC[C@@H](CNC(=O)c3ccc(F)cc3Cl)CC2)nc2ccccc12` [compound 188], for which the class under setting [6] was 3 (Class 3 The value of percent of control at 10^−7 M was more than 60% or the value of IC50 was more than 200 nM.).
In the case of `Cc1cnc(N[C@H]2CC[C@@H](NC(=O)COc3cccc(Cl)c3)CC2)nc1N(C)C` [compound 2879, 2-(3-chlorophenoxy)-N-(cis-4-{[4-(dimethylamino)-5-methylpyrimidin-2-yl]amino}cyclohexyl)acetamide], the class under setting [5] is 1 (Class 1: The value of percent of control at 10^−7 M was less than 40% or the value of IC50 was less than 50 nM.).
As to `CN(C)c1ccnc(N[C@H]2CC[C@@H](NC(=O)c3ccc(Cl)cc3)CC2)n1` [compound 243], the class under setting [3] is 2 (Class 2: The value of percent of control at 10^−7 M was from 40% to 60% or the value of IC′50 was from 50 nM to 200 nM.).
Consider `CN(C)c1nc(N[C@H]2CC[C@@H](CNC(=O)C3C[C@H]3c3ccccc3)CC2)nc2c1CCCC2` (some centres unmarked) [compound 608], for which the class under setting [3] is recorded as 3 (Class 3 The value of percent of control at 10^−7 M was more than 60% or the value of IC50 was more than 200 nM.).
Same read-out and setting: the same measure for `CN(C)c1ccnc(N[C@H]2CC[C@@H](NCc3cncc(-c4ccc(F)cc4)c3)CC2)n1` [compound 1235]: 2 (Class 2: The value of percent of control at 10^−7 M was from 40% to 60% or the value of IC′50 was from 50 nM to 200 nM.).
Regarding `CN(C)c1cc(N[C@H]2CC[C@@H](NC(=O)c3cc(C(C)(C)C)nn3Cc3ccccc3)CC2)nc2ccccc12` [compound 85], the class under setting [6] is 3 (Class 3 The value of percent of control at 10^−7 M was more than 60% or the value of IC50 was more than 200 nM.).
Regarding `CN(C)c1ccnc(N[C@H]2CC[C@@H](CNC(=O)/C=C/c3ccccc3Cl)CC2)n1` [compound 452], under setting [4], the class was 2 (Class 2: The value of percent of control at 10^−7 M was from 40% to 60% or the value of IC′50 was from 50 nM to 200 nM.).
As for `CN(C)c1cc(N[C@H]2CC[C@@H](CNC(=O)Cc3ccccc3)CC2)nc2ccccc12` [compound 172], the class under setting [6] is given as 3 (Class 3 The value of percent of control at 10^−7 M was more than 60% or the value of IC50 was more than 200 nM.).
As to `CN(C)c1ccnc(N[C@H]2CC[C@@H](CNCc3cc(Cl)ccc3Cl)CC2)n1` [compound 1534], under setting [1], the class was 3 (Class 3 The value of percent of control at 10^−7 M was more than 60% or the value of IC50 was more than 200 nM.).
On the same count and under the same terms, the same measure for `COC(=O)N[C@H]1CC[C@@H](Nc2nc3c(c(N(C)C)n2)CCCC3)CC1` [compound 1595]: 3 (Class 3 The value of percent of control at 10^−7 M was more than 60% or the value of IC50 was more than 200 nM.).
As for `Cc1cnc(N[C@H]2CC[C@@H](CNC(=O)c3cccnc3Oc3ccc(F)c(Cl)c3)C2)nc1N(C)C` [compound 3019], the class under setting [5] is 2 (Class 2: The value of percent of control at 10^−7 M was from 40% to 60% or the value of IC′50 was from 50 nM to 200 nM.).
For `CN(C)c1nc(N[C@H]2CC[C@@H](NC(=O)c3cccnc3Oc3ccccc3)CC2)nc2c1CCCC2` [compound 571], under setting [4], the class is reported as 2 (Class 2: The value of percent of control at 10^−7 M was from 40% to 60% or the value of IC′50 was from 50 nM to 200 nM.).
As to `C=CCOc1ccccc1CNC[C@H]1CC[C@@H](Nc2cc(N(C)C)c3ccccc3n2)CC1` [compound 1177], under setting [3], the class is 2 (Class 2: The value of percent of control at 10^−7 M was from 40% to 60% or the value of IC′50 was from 50 nM to 200 nM.).
Regarding `CN(C)c1cc(N[C@H]2CC[C@@H](CNC(=O)Nc3c(Cl)cccc3Cl)CC2)nc2ccccc12` [compound 2399], the class under setting [2] was 3 (Class 3 The value of percent of control at 10^−7 M was more than 60% or the value of IC50 was more than 200 nM.).
As for `CCCN(CCC)C(=O)[C@H](CCC(=O)N[C@H]1CC[C@@H](Nc2cc(N(C)C)c3ccccc3n2)CC1)NC(=O)c1ccccc1` (relative stereo) [compound 730], the class under setting [3] is given as 3 (Class 3 The value of percent of control at 10^−7 M was more than 60% or the value of IC50 was more than 200 nM.).
As to `CN(C)c1ccnc(N[C@H]2CC[C@@H](CNCc3cc(F)cc(C(F)(F)F)c3)CC2)n1` [compound 1319], under setting [3], the class was 3 (Class 3 The value of percent of control at 10^−7 M was more than 60% or the value of IC50 was more than 200 nM.).
Regarding `CN(C)c1cc(N[C@H]2CC[C@@H](NC(=O)CCCOc3ccccc3)CC2)nc2ccccc12` [compound 120], under setting [6], the class was 3 (Class 3 The value of percent of control at 10^−7 M was more than 60% or the value of IC50 was more than 200 nM.).
